Test results published in patent US6713488B2 (priority 2000, dated 2004).
Entries after “also recorded” stand apart in the source; their conditions may differ.

Legend:
δ opioid receptor = target: T1, δ opioid receptor (Mus musculus, UniProt P32300); assay: 3H-naloxone equilibrium binding to DOR; settings: 3H-naloxone 2 nM tracer, mean of triplicate ± SD
T1 construct: expressed in transfected cells; host or cells: HEK 293

human MOR [1] = target: T2, human MOR (Homo sapiens, UniProt P35372); assay type: cell-based
T2 construct: FLAG (N); expressed in transfected cells; host or cells: HEK 293
T2 sequence (P35372 whole entry): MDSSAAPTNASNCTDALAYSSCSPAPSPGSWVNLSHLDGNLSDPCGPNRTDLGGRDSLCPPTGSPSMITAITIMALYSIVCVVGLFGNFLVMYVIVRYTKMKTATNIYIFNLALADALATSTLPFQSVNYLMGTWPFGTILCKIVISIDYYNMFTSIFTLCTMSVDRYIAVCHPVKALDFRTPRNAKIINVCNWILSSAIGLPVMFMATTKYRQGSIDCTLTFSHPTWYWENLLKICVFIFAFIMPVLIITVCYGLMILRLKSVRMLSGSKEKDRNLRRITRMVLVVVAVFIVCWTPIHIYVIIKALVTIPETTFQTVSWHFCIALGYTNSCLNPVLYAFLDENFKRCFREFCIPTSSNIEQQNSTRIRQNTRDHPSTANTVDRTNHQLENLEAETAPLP

human MOR [2] = target: T2, human MOR; assay type: biochemical
μ opioid receptor = target: T3, μ opioid receptor (Homo sapiens, UniProt P35372); assay type: binding
T3 construct: FLAG (N); expressed in transfected cells
T3 sequence (P35372 whole entry): as above

[3] = tested on: morphine-induced antinociception; assay: antagonism of morphine antinociception, 55° C. warm-water tail flick assay; assay type: in vivo, mice; settings: for blockade of antinociceptive actions of morphine: 10 mg/kg i.p., morphine 20 nmol i.c.v. (A90), 55° C. tail-flick; for ID50 value against morphine-induced antinociception: morphine 20 nmol i.c.v.
[4] = tested on: acute mouse model of morphine dependence; assay: withdrawal jumping in acute mouse model of morphine dependence; assay type: in vivo, mice; settings: 10 mg/kg i.p.; for reduction of jumping versus parent compound: acute morphine dependence; for withdrawal jumping: mice pretreated once with morphine 100 mg/kg s.c. -4 hr, 15 minutes observation
[5] = tested on: chronic mouse model of morphine dependence; assay: withdrawal jumping in chronic mouse model of morphine dependence (morphine pellet implantation); assay type: in vivo, mice; settings: for dose needed to elicit 100 jumps/mouse / plateau of withdrawal jumping: i.p.
DOR = DOR (Rattus norvegicus, UniProt P33533); settings: cited from earlier work
Sequence of DOR (P33533 whole entry): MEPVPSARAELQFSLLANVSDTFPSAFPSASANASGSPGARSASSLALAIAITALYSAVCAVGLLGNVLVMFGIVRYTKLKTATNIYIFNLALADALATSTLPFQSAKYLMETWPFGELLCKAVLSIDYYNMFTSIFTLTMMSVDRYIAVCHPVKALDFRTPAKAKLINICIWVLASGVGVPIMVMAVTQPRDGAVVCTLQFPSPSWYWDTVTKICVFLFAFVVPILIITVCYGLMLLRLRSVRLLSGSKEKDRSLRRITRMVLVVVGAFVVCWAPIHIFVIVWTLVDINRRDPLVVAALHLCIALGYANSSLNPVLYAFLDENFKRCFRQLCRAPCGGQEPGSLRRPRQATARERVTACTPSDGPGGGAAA

SH-SY5Y cells = settings: cited from earlier work
drug-dependent mice = settings: cited from earlier work

T1 sequence (P32300 whole entry): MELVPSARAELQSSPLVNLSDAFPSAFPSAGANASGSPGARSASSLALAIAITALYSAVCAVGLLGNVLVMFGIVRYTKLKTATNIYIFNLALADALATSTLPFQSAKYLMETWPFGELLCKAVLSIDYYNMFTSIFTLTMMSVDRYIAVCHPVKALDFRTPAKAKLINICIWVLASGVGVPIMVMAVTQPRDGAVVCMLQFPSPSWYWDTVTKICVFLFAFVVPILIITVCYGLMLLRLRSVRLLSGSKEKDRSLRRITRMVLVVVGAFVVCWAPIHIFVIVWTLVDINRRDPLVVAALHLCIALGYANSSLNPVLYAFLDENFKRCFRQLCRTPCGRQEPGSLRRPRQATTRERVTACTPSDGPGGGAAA

## C=CCN1CC[C@]23c4c5ccc(O)c4O[C@H]2[C@@H](O)CC[C@@]3(O)[C@H]1C5 [6α-Naloxol, 6α-naloxol]
δ opioid receptor
  Ki: 2.1 ± 0.2 nM
Human MOR [1]
  effect on forskolin stimulated cAMP levels: no effect
Human MOR [2]
  blockade of inverse-agonistic effects of β-CNA: blocked
  effect on basal 35S-GTPγS binding activity: no significant effect
μ opioid receptor
  Ki: 0.63 ± 0.04 nM
[3]
  blockade of antinociceptive actions of morphine: blocked
[4]
  reduction of jumping versus parent compound: approximately 50%

## Oc1ccc2c3c1O[C@H]1[C@H](O)CC[C@@]4(O)[C@@H](C2)N(CC2CC2)CC[C@]314 [6α-Naltrexol, 6α-naltrexol]
δ opioid receptor
  Ki: 2.4 ± 0.1 nM
[3]
  blockade of antinociceptive actions of morphine: blocked
[4]
  reduction of jumping versus parent compound: approximately 50%

## N[C@H]1CC[C@@]2(O)[C@H]3Cc4ccc(O)c5c4[C@@]2(CCN3CC2CC2)[C@H]1O5 [6α-naltrexamine]
Human MOR [2]
  effect on basal 35S-GTPγS binding activity: no significant effect

## C=CCN1CC[C@]23c4c5ccc(O)c4O[C@H]2[C@H](O)CC[C@@]3(O)[C@H]1C5 [6β-Naloxol, 6β-naloxol]
δ opioid receptor
  Ki: 2.3 ± 0.05 nM
Human MOR [1]
  effect on forskolin stimulated cAMP levels: no effect
Human MOR [2]
  effect on basal 35S-GTPγS binding activity: no significant effect
μ opioid receptor
  Ki: 1.1 ± 0.02 nM
[3]
  blockade of antinociceptive actions of morphine: only partial blockade
[4]
  withdrawal jumping: no withdrawal jumping

## N[C@@H]1CC[C@@]2(O)[C@H]3Cc4ccc(O)c5c4[C@@]2(CCN3CC2CC2)[C@H]1O5 [6β-Naltrexamine, 6β-naltrexamine]
δ opioid receptor
  Ki: 2.3 ± 0.09 nM
μ opioid receptor
  Ki: 0.63 ± 0.05 nM
[3]
  blockade of antinociceptive actions of morphine: only partial blockade
[4]
  withdrawal jumping: no withdrawal jumping

## Oc1ccc2c3c1O[C@H]1[C@H](O)CC[C@@]4(O)[C@@H](C2)N(CC2CC2)CC[C@]314 [6β-Naltrexol, 6β-naltrexol]
δ opioid receptor
  Ki: 2.1 ± 0.01 nM
[5]
  dose needed to elicit 100 jumps/mouse: 10 mg/kg
[3]; antagonist i.c.v.
  ID50 value against morphine-induced antinociception: 2.3 nmol
[3]; antagonist i.p.
  ID50 value against morphine-induced antinociception: 1.0 mg/kg
[4]
  withdrawal jumping: no withdrawal jumping

## CC(=O)N[C@@H]1CC[C@@]2(O)[C@H]3Cc4ccc(O)c5c4[C@@]2(CCN3CC2CC2)[C@@H]1O5 [6β-naltrexamide]
[5]
  potency in eliciting withdrawal jumping (in words): low potency
Human MOR [2]
  effect on basal 35S-GTPγS binding activity: no significant effect
[3]
  blockade of antinociceptive actions of morphine: effect similar to 6β-naltrexamine
[4]
  withdrawal jumping: no withdrawal jumping

## O=C1/C(=C/c2ccccc2)C[C@@]2(O)[C@H]3Cc4ccc(O)c5c4[C@@]2(CCN3CC2CC2)[C@H]1O5 [BNTX, 7-benzylidene-7-dehydronaltrexone, reference compound]
Human MOR [1]
  effect on forskolin stimulated cAMP levels: increased
Human MOR [2]
  effect on basal 35S-GTPγS binding activity: decreased
DOR
  intrinsic activity at DOR: inverse agonists

## O=C(/C=C/c1ccc(Cl)cc1)N[C@@]12CCC(=O)[C@@H]3Oc4c(O)ccc5c4[C@@]31CCN(CC1CC1)[C@@H]2C5 [C-CAM, clocinnamox, reference compound]
Human MOR [1]
  effect on forskolin stimulated cAMP levels: increased
Human MOR [2]
  effect on basal 35S-GTPγS binding activity: decreased
DOR
  intrinsic activity at DOR: inverse agonists

## C=CCN1CC[C@]23c4c5ccc(O)c4O[C@H]2C(=O)CC[C@@]3(O)[C@H]1C5 [Naloxone, naloxone, reference compound]
[5]
  dose needed to elicit 100 jumps/mouse: ~0.3 mg/kg
  plateau of withdrawal jumping: approximately 200 jumps/mouse
SH-SY5Y cells; morphine pretreated
  effect in morphine pretreated SH-SY5Y cells: inverse agonist
SH-SY5Y cells; untreated cells
  effect in untreated SH-SY5Y cells: little effect
[3]
  blockade of antinociceptive actions of morphine: blocked
[3]; antagonist i.c.v.
  ID50 value against morphine-induced antinociception: 3.4 nmol
[3]; antagonist i.p.
  ID50 value against morphine-induced antinociception: 1.1 mg/kg
[4]
  withdrawal jumping: aversive effects (withdrawal jumping); also recorded: precipitated robust withdrawal jumping

## O=C1CC[C@@]2(O)[C@H]3Cc4ccc(O)c5c4[C@@]2(CCN3CC2CC2)[C@H]1O5 [Naltrexone, naltrexone, reference compound]
[5]
  dose needed to elicit 100 jumps/mouse: approximately 0.1 mg/kg
  plateau of withdrawal jumping: approximately 200 jumps/mouse
[3]
  blockade of antinociceptive actions of morphine: blocked
[3]; antagonist i.c.v.
  ID50 value against morphine-induced antinociception: 0.26 nmol
[3]; antagonist i.p.
  ID50 value against morphine-induced antinociception: 0.22 mg/kg
[4]
  withdrawal jumping: aversive effects (withdrawal jumping); also recorded: precipitated robust withdrawal jumping

## C=C1CC[C@@]2(O)[C@H]3Cc4ccc(O)c5c4[C@@]2(CCN3CC2CC2)[C@H]1O5 [nalmefene, reference compound]
Human MOR [2]
  effect on basal 35S-GTPγS binding activity: decreased

## COC(=O)C=CC(=O)NC1CCC2(O)C3Cc4ccc(O)c5c4C2(CCN3CC2CC2)C1O5.Cl (stereo not drawn) [β-FNA, β-funaltrexamine HCl, reference compound]
Human MOR [2]
  effect on basal 35S-GTPγS binding activity: no significant effect

## D-Phe-Cys-Tyr-D-Trp-Arg-Thr-Pen-Thr-Nh2 [CTAP]
drug-dependent mice
  withdrawal elicited compared with naloxone: significantly less withdrawal than naloxone
